Measurements taken from patent US6806264B2, “Arylphenyl-substituted cyclic ketoenols” (Bayer Aktiengesellschaft, priority 1998, dated 2004).

Assays:
[1] = test system: peach aphids (Myzus persicae); assay: Myzus test; format: in vivo; details: concentration of active compound 0.1 %, infested cabbage leaves (Brassica oleracea) dipped
[2] = test system: larvae of the mustard beetle (Phaedon cochileariae); assay: Phaedon larvae test; details: concentration of active compound 0.1 %, cabbage leaves (Brassica oleracea) dipped
[3] = test system: greenhouse red spidermite (Tetranychus urticae); assay: Tetranychus test (OP-resistant/dip treatment); format: in vivo; details: concentration of active compound 0.1 %, infested bean plants (Phaseolus vulgaris) dipped, OP-resistant
Experimental: After the desired period of time, the effect in % is determined.

[4] = test system: caterpillars of the army worm (Spodoptera frugiperda); assay: Spodoptera frugiperda test; format: in vivo; details: concentration of active compound 0.1 %, cabbage leaves (Brassica oleracea) dipped

| SMILES | melting point [°C] | Degree of kill in % after 6 days [1] [%] | Degree of kill in % after 7 days [2] [%] | Degree of kill in % after 7 days [3] [%] | Degree of kill in % after 7 days [4] [%] |
| --- | --- | --- | --- | --- | --- |
| Cc1ccc(-c2ccccc2)c(C)c1C1=C(O)C2(CCC(C)CC2)NC1=O (stereo not drawn) [Ex. I-1-a-2] | > 240 | 95 | 100 |  |  |
| Cc1ccc(-c2ccc(Cl)cc2)c(C)c1C1=C(O)C2(CCC(C)CC2)NC1=O (stereo not drawn) [Ex. I-1-a-3] | > 240 | 98 | 100 | 100 | 100 |
| COC1CCC2(CC1)NC(=O)C(c1c(C)cc(C)c(-c3ccc(Cl)cc3)c1C)=C2O (stereo not drawn) [Ex. I-1-a-5] | > 240 |  | 100 |  | 100 |
| COC1CCC2(CC1)NC(=O)C(c1c(C)cc(C)c(-c3ccccc3)c1C)=C2O (stereo not drawn) [Ex. I-1-a-6] | > 240 | 100 | 100 |  | 100 |
| Cc1ccc(-c2ccc(Cl)cc2)c(C)c1C1=C(O)C2(CCCOC2)NC1=O (stereo not drawn) [Ex. I-1-a-7] | > 250 | 98 | 100 |  | 100 |
| COc1cc(Cl)c(C2=C(O)C3(CCC(OC)CC3)NC2=O)cc1-c1ccccc1 (stereo not drawn) [Ex. I-1-a-13] | 134 |  | 100 |  |  |
